The test system of this test is BDF1 mice, P288 leukemia ip, survival T/C. Description: NCI In Vivo Anticancer Drug Screen. Data for tumor model P288 Lymphocytic Leukemia (intraperitoneal) in B6D2F1 (BDF1) mice. To be noted: endpoint: survival time, mean or median, higher = longer survival. The method, then:
The antitumor activity of compounds was measured in mice bearing transplantable tumors. Survival or tumor size were measured and the results are expressed as the measurement made in the treated group (T) divided by the measurement made in the vehicle treated control group (C). The tumor model used in this assay is P288 Lymphocytic Leukemia (intraperitoneal) in B6D2F1 (BDF1) mice

[1] abbreviates: dose: 1.0 mg/kg/injection, schedule: Q01DX010 (ip), vehicle: other.
Setting [2] is: dose: 2.0 mg/kg/injection, schedule: Q01DX010 (ip), vehicle: other.
[3] abbreviates: dose: 4.0 mg/kg/injection, schedule: Q01DX010 (ip), vehicle: other.
The mark [4] stands for this setting: dose: 8.0 mg/kg/injection, schedule: Q01DX010 (ip), vehicle: other.
Where [5] appears, read: dose: 16.0 mg/kg/injection, schedule: Q01DX010 (ip), vehicle: other.
[6] abbreviates: dose: 25.0 mg/kg/injection, schedule: Q01DX Z (ip), vehicle: carboxymethylcellulose (CMC).
Where [7] appears, read: dose: 100.0 mg/kg/injection, schedule: Q01DX Z (ip), vehicle: carboxymethylcellulose (CMC).
The mark [8] stands for this setting: dose: 200.0 mg/kg/injection, schedule: Q01DX Z (ip), vehicle: carboxymethylcellulose (CMC).
The mark [9] stands for this setting: dose: 10.0 mg/kg/injection, schedule: Q01DX010 (ip), vehicle: saline.
[10] abbreviates: dose: 20.0 mg/kg/injection, schedule: Q01DX010 (ip), vehicle: saline.
Where [11] appears, read: dose: 40.0 mg/kg/injection, schedule: Q01DX010 (ip), vehicle: saline.
[12] abbreviates: dose: 25.0 mg/kg/injection, schedule: Q01DX010 (ip), vehicle: saline.
The mark [13] stands for this setting: dose: 50.0 mg/kg/injection, schedule: Q01DX010 (ip), vehicle: saline.
Where [14] appears, read: dose: 100.0 mg/kg/injection, schedule: Q01DX010 (ip), vehicle: saline.

Here are results for ten compounds from PubChem BioAssay AID216 (DTP/NCI, 2004).

“And” between values parts separate entries of the source, which are not always exact repeats. Equal values may be shown once. Toxic doses and inconclusive results are not listed.

Regarding `O=C(Nc1ccc(C2=NCCCN2)cc1)c1ccc(C(=O)Nc2ccc(C3=NCCCN3)cc2)cc1`, the T/C runs as follows: (dose: 0.2 mg/kg/injection, schedule: Q01DX Z (ip), vehicle: water) 100 % of control; (dose: 0.4 mg/kg/injection, schedule: Q01DX Z (ip), vehicle: water) 109 % of control; (dose: 0.5 mg/kg/injection, schedule: Q01DX010 (ip), vehicle: other) 116 % of control and 120 % of control; under setting [1], 150 % of control; (dose: 1.6 mg/kg/injection, schedule: Q01DX Z (ip), vehicle: water) 177 % of control; under setting [2], 192 % of control and 216 % of control. Further, the T/C runs as follows: (dose: 3.1 mg/kg/injection, schedule: Q01DX Z (ip), vehicle: water) 273 % of control; under setting [3], 164 % of control and 212 % of control; under setting [4], 91 % of control.
As for `O=C(Nc1ccc(C2=NCCCN2)cc1)c1ccc(NC(=O)c2ccc(C3=NCCCN3)cc2)cc1`, the T/C is 113 % of control (dose: 0.24 mg/kg/injection, schedule: Q01DX Z (ip), vehicle: carboxymethylcellulose (CMC)); 94 % of control (dose: 0.49 mg/kg/injection, schedule: Q01DX Z (ip), vehicle: carboxymethylcellulose (CMC)); 121 % of control (dose: 0.98 mg/kg/injection, schedule: Q01DX Z (ip), vehicle: carboxymethylcellulose (CMC)); 120 % of control under setting [1]; 119 % of control (dose: 1.95 mg/kg/injection, schedule: Q01DX Z (ip), vehicle: carboxymethylcellulose (CMC)); 124 % of control under setting [2]. Further, the T/C is 183 % of control (dose: 3.9 mg/kg/injection, schedule: Q01DX Z (ip), vehicle: carboxymethylcellulose (CMC)); 184 % of control and 237 % of control under setting [3]; 245 % of control (dose: 7.8 mg/kg/injection, schedule: Q01DX Z (ip), vehicle: carboxymethylcellulose (CMC)); 237 % of control and 284 % of control under setting [4]; 156 % of control (dose: 15.6 mg/kg/injection, schedule: Q01DX Z (ip), vehicle: carboxymethylcellulose (CMC)); 92 % of control under setting [5]. Also, the T/C (dose: 31.25 mg/kg/injection, schedule: Q01DX Z (ip), vehicle: carboxymethylcellulose (CMC)) was 103 % of control.
For the compound `C[N+](C)(C)c1ncnc2nc[nH]c12`, the T/C is 98 % of control (dose: 0.4 mg/kg/injection, schedule: Q01DX Z (ip), vehicle: carboxymethylcellulose (CMC)); 94 % of control (dose: 0.8 mg/kg/injection, schedule: Q01DX Z (ip), vehicle: carboxymethylcellulose (CMC)); 98 % of control (dose: 1.6 mg/kg/injection, schedule: Q01DX Z (ip), vehicle: carboxymethylcellulose (CMC)); 98 % of control (dose: 3.1 mg/kg/injection, schedule: Q01DX Z (ip), vehicle: carboxymethylcellulose (CMC)); 88 % of control and 100 % of control (dose: 15.0 mg/kg/injection, schedule: Q01DX010 (ip), vehicle: saline); 100 % of control (dose: 30.0 mg/kg/injection, schedule: Q01DX010 (ip), vehicle: saline). Further, the T/C by setting is: (dose: 60.0 mg/kg/injection, schedule: Q01DX010 (ip), vehicle: saline) 100 % of control; (dose: 120.0 mg/kg/injection, schedule: Q01DX010 (ip), vehicle: saline) 100 % of control.
On to `O=C(Nc1ccc(C2=NCCN2)cc1)c1ccc(C(=O)Nc2ccc(C3=NCCN3)cc2)cc1`, for which the T/C is 107 % of control (dose: 3.12 mg/kg/injection, schedule: Q01DX Z (ip), vehicle: carboxymethylcellulose (CMC)); 94 % of control (dose: 6.25 mg/kg/injection, schedule: Q01DX Z (ip), vehicle: carboxymethylcellulose (CMC)); 158 % of control and 188 % of control under setting [4]; 102 % of control (dose: 12.5 mg/kg/injection, schedule: Q01DX Z (ip), vehicle: carboxymethylcellulose (CMC)); 195 % of control under setting [5]; 102 % of control under setting [6]. Further, the T/C was 154 % of control (dose: 32.0 mg/kg/injection, schedule: Q01DX010 (ip), vehicle: other); 102 % of control (dose: 50.0 mg/kg/injection, schedule: Q01DX Z (ip), vehicle: carboxymethylcellulose (CMC)); 204 % of control under setting [7]; 186 % of control under setting [8].
For the compound `CC1CCOS(=O)O1` (stereo not drawn), the T/C runs as follows: under setting [9], 88 % of control; under setting [10], 100 % of control; under setting [11], 100 % of control.
With `C[C@]12CC[C@H](OC3OC(CO)C(O)C(O)C3O)C[C@H]1CC[C@@H]1[C@@H]2CC[C@]2(C)[C@@H](C3=CCOC3=O)CC[C@]12O` (stereo partly drawn), the T/C was 97 % of control (dose: 0.12 mg/kg/injection, schedule: Q01DX Z (ip), vehicle: saline); 97 % of control (dose: 0.25 mg/kg/injection, schedule: Q01DX Z (ip), vehicle: saline); 101 % of control and 98 % of control (dose: 0.5 mg/kg/injection, schedule: Q01DX Z (ip), vehicle: saline); 104 % of control and 110 % of control (dose: 1.0 mg/kg/injection, schedule: Q01DX Z (ip), vehicle: saline); 105 % of control and 107 % of control (dose: 2.0 mg/kg/injection, schedule: Q01DX Z (ip), vehicle: saline); 121 % of control and 94 % of control (dose: 4.0 mg/kg/injection, schedule: Q01DX Z (ip), vehicle: saline).
As for `CS(=O)(=O)OCC(O)C(O)C(O)C(O)COS(C)(=O)=O` (stereo not drawn), the T/C was 100 % of control under setting [12]; 114 % of control and 94 % of control under setting [13]; 111 % of control and 100 % of control under setting [14]; 105 % of control and 100 % of control (dose: 200.0 mg/kg/injection, schedule: Q01DX010 (ip), vehicle: saline); 114 % of control (dose: 400.0 mg/kg/injection, schedule: Q01DX010 (ip), vehicle: saline).
Take `CCN(CC)CCNc1ccc(C)c2sc3ccccc3c(=O)c12`: the T/C runs as follows: under setting [12], 110 % of control; under setting [13], 205 % of control; (dose: 51.0 mg/kg/injection, schedule: Q01DX010 (ip), vehicle: saline) 155 % of control; under setting [14], 180 % of control.
Consider `C[C@]12CCC(=O)C[C@H]1CC[C@@H]1[C@@H]2CC[C@@]2(C)[C@H]1CC[C@]2(C)O`, for which the T/C is, setting by setting: (dose: 62.5 mg/kg/injection, schedule: Q01DX Z (sc), vehicle: steriod suspending solution) 97 % of control; (dose: 125.0 mg/kg/injection, schedule: Q01DX Z (sc), vehicle: steriod suspending solution) 98 % of control; (dose: 250.0 mg/kg/injection, schedule: Q01DX Z (sc), vehicle: steriod suspending solution) 109 % of control and 92 % of control; (dose: 500.0 mg/kg/injection, schedule: Q01DX Z (sc), vehicle: steriod suspending solution) 104 % of control and 100 % of control; (dose: 1000.0 mg/kg/injection, schedule: Q01DX Z (sc), vehicle: steriod suspending solution) 101 % of control.
With `O=c1[nH]c(=O)n(C2CC(O)C(CO)O2)cc1F` (stereo not drawn), the T/C (dose: 5.0 mg/kg/injection, schedule: Q01DX010 (ip), vehicle: saline) is 106 % of control; the T/C under setting [9] was 109 % of control and 100 % of control; the T/C under setting [10] is 112 % of control and 100 % of control; the T/C under setting [6] is 111 % of control; the T/C under setting [11] is 113 % of control; the T/C (dose: 80.0 mg/kg/injection, schedule: Q01DX010 (ip), vehicle: saline) was 118 % of control. In addition, the T/C is 156 % of control and 163 % of control under setting [7]; 111 % of control and 124 % of control under setting [8]; 108 % of control (dose: 400.0 mg/kg/injection, schedule: Q01DX Z (ip), vehicle: carboxymethylcellulose (CMC)); 86 % of control (dose: 800.0 mg/kg/injection, schedule: Q01DX Z (ip), vehicle: carboxymethylcellulose (CMC)).
